Measured values published in US9605064B2, “Methods and compositions for treatment of skin disorders” (AbbVie Biotechnology Ltd, priority 2006, dated 2017).

System: patients with moderate to severe chronic plaque psoriasis
Experiment: PASI response, Phase II 12-week placebo-controlled trial with 48-week extension
Type: in vivo, human
Conditions: for PASI 50 / PASI 90 / PASI 100: after 60 weeks of 40 mg eow; for patients with PASI<50 response, qualified for dosage escalation to weekly: on or after Week 24; for Number of Patients Who Qualified for Dosage Escalation: placebo/adalimumab 40 mg eow (n = 18)
Source text: Efficacy outcome measures included PASI and PGA.
The two primary clinical outcome measures used in this study were the psoriasis area and severity index (PASI) and the physician's global assessment (PGA). PASI improvement of greater than or equal to 75% (used as an endpoint in psoriasis clinical trials) at week 12 was the primary efficacy outcome measure for this study. PASI is a composite index indicating severity for three main signs of psoriatic plaques (erythema, scaling, and thickness), weighted by the amount of coverage of these plaques in four main body areas, i.e., head, trunk, upper extremities, and lower extremities. PASI scores, which range from 0-72, with higher scores indicating greater severity, were assessed at screening, baseline, week 1, week 2, week 4, week 8, week 12/early termination, and follow-up.
Skin and safety outcomes were assessed up to Week 60.
Analytical methods included the following: • Analyses of clinical data were performed on a modified intention-to-treat population (ITT). […] Patients whose dosages were increased on or after Week 24 were considered non-responders; • Patients with similar percentage PASI improvement across treatment arms were pooled into four strata: PASI<50, PASI 50-74, PASI 75-99, and PASI 100; and • Week-60 distribution of DLQI scores, mean DLQI scores, and mean change in DLQI from Week 0-60 were calculated within each stratum.
Frequently used as an endpoint in psoriasis clinical trials, the PASI [25] was the primary efficacy outcome in this trial. PASI is a composite index indicating the severity of the three main signs of psoriatic plaques (i.e., erythema, scaling, and thickness) and is weighted by the amount of coverage of these plaques in the four main body areas (head, trunk, upper extremities, and lower extremities). PASI scores range from 0-72, with higher scores indicating greater disease severity. PASI was assessed at screening and baseline, at Weeks 1, 2, 4, 8, and 12/Early Termination, and at the final follow-up visit.
At week 12, placebo patients received an 80-mg loading dose, then 40 mg every other week. […] Patients who receive the rescue therapy were considered non-responders in this analysis.

[1] = Week 60, adalimumab 40 mg weekly, modified ITT, NRI
[2] = Week 60, placebo/adalimumab 40 mg eow (adalimumab from Week 12), modified ITT, NRI
[3] = baseline PASI ≧10 and DLQI >10, 40 mg eow, Week 12
[4] = baseline PASI ≧10 and DLQI >10, 40 mg eow, Week 24
[5] = baseline PASI ≧10 and DLQI >10, 40 mg eow, Week 36
[6] = baseline PASI ≧10 and DLQI >10, 40 mg eow, Week 60
[7] = baseline PASI ≧10 and DLQI >10, 40 mg weekly, Week 12
[8] = baseline PASI ≧10 and DLQI >10, 40 mg weekly, Week 24
[9] = baseline PASI ≧10 and DLQI >10, 40 mg weekly, Week 36
[10] = baseline PASI ≧10 and DLQI >10, 40 mg weekly, Week 60
[11] = baseline PASI ≧10 and DLQI >10, placebo/adalimumab 40 mg eow, Week 24
[12] = baseline PASI ≧10 and DLQI >10, placebo/adalimumab 40 mg eow, Week 36
[13] = baseline PASI ≧10 and DLQI >10, placebo/adalimumab 40 mg eow, Week 60
[14] = dosage escalation group (eow to 40 mg weekly, n = 30), Week 60
[15] = placebo/adalimumab 40 mg eow, Week 60, modified ITT, NRI
[16] = weekly group, week 60, observed analysis

Adalimumab: a human anti-TNF mAb, described in U.S. Pat. No. 6,090,382 as D2E7 (HUMIRA, Abbott Laboratories)
PASI 50 (% patients) [1]: 66% | Percentage of patients who achieved PASI 75 [1]: 64% | Percentage of patients who achieved PASI 90 [1]: 48% | Percentage of patients who achieved PASI 100 (Week 60, placebo/adalimumab 40 mg eow (adalimumab from Week 12), NRI): 19% | PASI 50 (% patients) [2]: 64% | Percentage of patients who achieved PASI 75 [2]: 45% | Percentage of patients who achieved PASI 90 [2]: 40% | PASI 75 response rate [3]: 69 % of Patients | PASI 90 response rate [3]: 39 % of Patients | PASI 75 response rate [4]: 77 % of Patients | PASI 90 response rate [4]: 54 % of Patients | PASI 75 response rate [5]: 73 % of Patients | PASI 90 response rate [5]: 58 % of Patients | PASI 75 response rate [6]: 65 % of Patients | PASI 90 response rate [6]: 42 % of Patients | PASI 75 response rate [7]: 74 % of Patients | PASI 90 response rate [7]: 61 % of Patients | PASI 75 response rate [8]: 78 % of Patients | PASI 90 response rate [8]: 70 % of Patients | PASI 75 response rate [9]: 74 % of Patients | PASI 90 response rate [9]: 65 % of Patients | PASI 75 response rate [10]: 65 % of Patients | PASI 90 response rate [10]: 48 % of Patients | PASI 75 response rate [11]: 50 % of Patients | PASI 90 response rate [11]: 28 % of Patients | PASI 75 response rate [12]: 50 % of Patients | PASI 90 response rate [12]: 50 % of Patients | PASI 75 response rate [13]: 44 % of Patients | PASI 90 response rate [13]: 39 % of Patients | PASI 50 response rate [14]: 40% | PASI 75 response rate [14]: ~20% | PASI 90 response rate [14]: 0% | PASI 75 response rate (dosage escalation group (eow to 40 mg weekly, n = 30), Week 60, listed as adalimumab): 17% | PASI 50 response (eow arm, Week 24): 73 | PASI 75 response rate (no prior use, 40 mg eow, Week 24): 65 % Patients | PASI 75 response rate (no prior use, 40 mg eow, Week 60): 48 % Patients | PASI 75 response rate (no prior use, 40 mg weekly, Week 24): 76 % Patients | PASI 75 response rate (no prior use, 40 mg weekly, Week 60): 64 % Patients | PASI 50 (no prior use): 65% | PASI 90 (no prior use): 30% | PASI 100 (no prior use): 17% | PASI 75 response rate (no prior use, placebo/adalimumab 40 mg eow, Week 24): 56 % Patients | PASI 75 response rate (no prior use, placebo/adalimumab 40 mg eow, Week 60): 40 % Patients | patients with PASI<50 response, qualified for dosage escalation to weekly (of the 45 patients in adalimumab eow group): 12 patients | patients with PASI<50 response, qualified for dosage escalation to weekly (of the 47 patients in placebo/adalimumab eow group): 18 patients | patients with PASI≧75 after dose escalation (original adalimumab 40 mg every other week arm (two out of nine), week 60): 22% | patients with PASI≧75 after dose escalation (original placebo/adalimumab 40 mg every other week arm (two out of thirteen), week 60): 15% | Number of Patients Who Qualified for Dosage Escalation (Week 24): 10 | Number of Patients Who Qualified for Dosage Escalation (Week 28): 2 | Number of Patients Who Qualified for Dosage Escalation (Week 32): 2 | Number of Patients Who Qualified for Dosage Escalation (Week 44): 1 | Number of Patients Who Qualified for Dosage Escalation (Week 52): 3 | Number of Patients Who Qualified for Dosage Escalation (Week 60): 0 | Overall PASI 75 response rate (placebo/adalimumab 40 mg eow, Week 24, modified ITT, NRI): 55 % of Patients | Overall PASI 75 response rate (placebo/adalimumab 40 mg eow, Week 36, modified ITT, NRI): 62 % of Patients | Overall PASI 75 response rate [15]: 45 % of Patients | PASI 50 response rate [15]: 57 % Patients | PASI 90 response rate [15]: 40 % Patients | PASI 100 response rate [15]: 19 % Patients | PASI 50 response (placebo/eow arm, Week 24): 77 | PASI 50 (prior biologic use): 63% | PASI 90 (prior biologic use): 38% | PASI 100 (prior biologic use): 13% | PASI 75 response rate (prior biological use, 40 mg eow, Week 24): 50 % Patients | PASI 75 response rate (prior biological use, 40 mg eow, Week 60): 63 % Patients | PASI 75 response rate (prior biological use, 40 mg weekly, Week 24): 67 % Patients | PASI 75 response rate (prior biological use, 40 mg weekly, Week 60): 78 % Patients | PASI 75 response rate (prior biological use, placebo/adalimumab 40 mg eow, Week 24): 63 % Patients | PASI 75 response rate (prior biological use, placebo/adalimumab 40 mg eow, Week 60): 63 % Patients | PASI 75 response rate (prior systemic use, 40 mg eow, Week 24): 68 % Patients | PASI 75 response rate (prior systemic use, 40 mg eow, Week 60): 68 % Patients | PASI 75 response rate (prior systemic use, 40 mg weekly, Week 24): 73 % Patients | PASI 75 response rate (prior systemic use, 40 mg weekly, Week 60): 64 % Patients | PASI 50 (prior systemic use): 68% | PASI 90 (prior systemic use): 37% | PASI 100 (prior systemic use): 11% | PASI 75 response rate (prior systemic use, placebo/adalimumab 40 mg eow, Week 24): 47 % Patients | PASI 75 response rate (prior systemic use, placebo/adalimumab 40 mg eow, Week 60): 41 % Patients | PASI 50 response (weekly arm, Week 24): 80 | PASI 75-99 response rate [16]: 38 | PASI 100 response rate [16]: 26
